Reference: ChEMBL document CHEMBL3751770, “Identification of benzothiophene amides as potent inhibitors of human nicotinamide phosphoribosyltransferase” (Bioorg Med Chem Lett, 2016)

Tests used:
[1] = tested on: MDA-MB-231; assay: Cytotoxicity against human MDA-MB-231 cells after 72 hrs by MTT assay; format: functional, cell-based; conditions: MDA-MB-231, 72 h
[2] = tested on: HepG2; assay: Cytotoxicity against human HepG2 cells after 72 hrs by MTT assay; format: functional, cell-based; conditions: HepG2, 72 h
[3] = Cytotoxicity against human HCT116 cells after 72 hrs by MTT assay; format: functional, cell-based; conditions: HCT-116, 72 h
[4] = target: Nicotinamide phosphoribosyltransferase (Homo sapiens, UniProt P43490); assay: Inhibition of human Nampt using NAM as substrate after 15 mins by fluorometric method
Nicotinamide phosphoribosyltransferase, sequence (P43490 whole entry): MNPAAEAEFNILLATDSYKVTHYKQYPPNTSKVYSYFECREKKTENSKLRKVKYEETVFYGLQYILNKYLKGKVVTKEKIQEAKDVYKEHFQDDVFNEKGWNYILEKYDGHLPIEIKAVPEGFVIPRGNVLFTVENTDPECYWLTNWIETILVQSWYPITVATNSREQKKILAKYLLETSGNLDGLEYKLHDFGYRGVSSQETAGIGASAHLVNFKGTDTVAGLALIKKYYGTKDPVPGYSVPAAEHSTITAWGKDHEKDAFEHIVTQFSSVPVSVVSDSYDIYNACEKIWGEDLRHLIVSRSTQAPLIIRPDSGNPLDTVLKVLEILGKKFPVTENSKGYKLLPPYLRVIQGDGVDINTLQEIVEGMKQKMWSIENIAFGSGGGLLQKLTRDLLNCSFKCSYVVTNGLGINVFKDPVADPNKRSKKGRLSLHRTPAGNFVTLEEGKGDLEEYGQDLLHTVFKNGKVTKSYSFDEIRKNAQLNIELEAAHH

[5] = tested on: HepG2; assay: Induction of apoptosis in human HepG2 cells assessed as necrotic cells level at 5 uM after 48 hrs using annexin VFITC/propidium iodide staining by flow cytometry (reference value: 4.09%); format: functional
[6] = tested on: HepG2; assay: Induction of apoptosis in human HepG2 cells assessed as early apoptotic cells level at 5 uM after 48 hrs using annexin VFITC/propidium iodide staining by flow cytometry (reference value: 2.84%); format: functional
[7] = tested on: HepG2; assay: Induction of apoptosis in human HepG2 cells assessed as late apoptotic cells level at 5 uM after 48 hrs using annexin VFITC/propidium iodide staining by flow cytometry (reference value: 2.85%); format: functional

Compound | IC50 [4] | IC50 [1] | IC50 [2] | IC50 [3] | Activity [5] | Activity [6] | Activity [7]
COc1ccc(CCNC(=O)c2ccc(C)s2)cc1OC | 0.86 µM | > 307 µM | > 307 µM | > 307 µM |  |  | 
COc1ccc(CCNC(=O)c2ccc([N+](=O)[O-])s2)cc1OC | > 10 µM | > 328 µM | 80 µM | 86 µM |  |  | 
COc1ccc(CCNC(=O)CNC(=O)c2sccc2C)cc1OC | > 10 µM | > 328 µM | 47 µM | 196 µM |  |  | 
COc1ccc(CCNC(=O)c2cc3ccccc3s2)cc1OC |  | > 293 µM | 82 µM | 281 µM |  |  | 
COc1ccc(CCNC(=O)c2sccc2C)cc1OC | 5.3 µM | 191 µM | 99 µM | 169 µM |  |  | 
COc1ccc(CCNC(=O)CNC(=O)c2ccc(C)s2)cc1OC | 0.95 µM | > 401 µM | > 401 µM | > 401 µM |  |  | 
COc1ccc(CCNC(=O)/C=C/c2cccnc2)cc1OC | > 10 µM | > 401 µM | > 401 µM | > 401 µM |  |  | 

Now from value to compound, other results behind:

IC50 [4] | Compound | IC50 [1] | IC50 [2] | IC50 [3] | Activity [5] | Activity [6] | Activity [7]
> 10 µM | Cc1ccsc1C(=O)NCCCn1ccnc1 | > 276 µM | 102 µM | 198 µM |  |  | 
> 10 µM | O=C(NCCCn1ccnc1)c1ccc([N+](=O)[O-])s1 | > 390 µM | 60 µM | > 390 µM |  |  | 
> 10 µM | O=C(/C=C/c1cccnc1)NCCCn1ccnc1 | > 276 µM | > 276 µM | > 276 µM |  |  | 
1.1 µM | O=C(NCCCn1ccnc1)c1cc2ccccc2s1 | 36 µM | 5.2 µM | 25 µM | 6.75% | 1.88% | 24.42%
1.4 µM | COc1ccc(CCNC(=O)c2cc3ccccc3o2)cc1OC | > 371 µM | 137 µM | 159 µM |  |  | 
1 µM | O=C(NCCCn1ccnc1)c1cc2ccccc2o1 | 10 µM | 11 µM | 61 µM |  |  | 
0.17 µM | Cc1ccc(C(=O)NCCCn2ccnc2)s1 | > 320 µM | 3.9 µM | > 320 µM | 6.62% | 1.03% | 47.51%
